Measurements reported in patent US9902696B2, “1,4-substituted piperidine derivatives” (Cephalon, Inc., priority 2015, dated 2018).
Structures can show the parent of a compound that is named as a salt.

These compounds were tested against T1, recombinant human baculovirus-expressed GST-tagged FASN (Homo sapiens, UniProt P49327) (assay: FASN enzyme activity assay, fluorescence-based detection of CoA with CPM). Details: 5 nM FASN, 150 μM NADPH, 10 μM acetyl-CoA, 25 μM malonyl-CoA, 90 minutes incubation; read-out: IC50 data for Compounds of Formulae I-V/V(a): Activity.
T1 construct: GST
T1 sequence (P49327 whole entry): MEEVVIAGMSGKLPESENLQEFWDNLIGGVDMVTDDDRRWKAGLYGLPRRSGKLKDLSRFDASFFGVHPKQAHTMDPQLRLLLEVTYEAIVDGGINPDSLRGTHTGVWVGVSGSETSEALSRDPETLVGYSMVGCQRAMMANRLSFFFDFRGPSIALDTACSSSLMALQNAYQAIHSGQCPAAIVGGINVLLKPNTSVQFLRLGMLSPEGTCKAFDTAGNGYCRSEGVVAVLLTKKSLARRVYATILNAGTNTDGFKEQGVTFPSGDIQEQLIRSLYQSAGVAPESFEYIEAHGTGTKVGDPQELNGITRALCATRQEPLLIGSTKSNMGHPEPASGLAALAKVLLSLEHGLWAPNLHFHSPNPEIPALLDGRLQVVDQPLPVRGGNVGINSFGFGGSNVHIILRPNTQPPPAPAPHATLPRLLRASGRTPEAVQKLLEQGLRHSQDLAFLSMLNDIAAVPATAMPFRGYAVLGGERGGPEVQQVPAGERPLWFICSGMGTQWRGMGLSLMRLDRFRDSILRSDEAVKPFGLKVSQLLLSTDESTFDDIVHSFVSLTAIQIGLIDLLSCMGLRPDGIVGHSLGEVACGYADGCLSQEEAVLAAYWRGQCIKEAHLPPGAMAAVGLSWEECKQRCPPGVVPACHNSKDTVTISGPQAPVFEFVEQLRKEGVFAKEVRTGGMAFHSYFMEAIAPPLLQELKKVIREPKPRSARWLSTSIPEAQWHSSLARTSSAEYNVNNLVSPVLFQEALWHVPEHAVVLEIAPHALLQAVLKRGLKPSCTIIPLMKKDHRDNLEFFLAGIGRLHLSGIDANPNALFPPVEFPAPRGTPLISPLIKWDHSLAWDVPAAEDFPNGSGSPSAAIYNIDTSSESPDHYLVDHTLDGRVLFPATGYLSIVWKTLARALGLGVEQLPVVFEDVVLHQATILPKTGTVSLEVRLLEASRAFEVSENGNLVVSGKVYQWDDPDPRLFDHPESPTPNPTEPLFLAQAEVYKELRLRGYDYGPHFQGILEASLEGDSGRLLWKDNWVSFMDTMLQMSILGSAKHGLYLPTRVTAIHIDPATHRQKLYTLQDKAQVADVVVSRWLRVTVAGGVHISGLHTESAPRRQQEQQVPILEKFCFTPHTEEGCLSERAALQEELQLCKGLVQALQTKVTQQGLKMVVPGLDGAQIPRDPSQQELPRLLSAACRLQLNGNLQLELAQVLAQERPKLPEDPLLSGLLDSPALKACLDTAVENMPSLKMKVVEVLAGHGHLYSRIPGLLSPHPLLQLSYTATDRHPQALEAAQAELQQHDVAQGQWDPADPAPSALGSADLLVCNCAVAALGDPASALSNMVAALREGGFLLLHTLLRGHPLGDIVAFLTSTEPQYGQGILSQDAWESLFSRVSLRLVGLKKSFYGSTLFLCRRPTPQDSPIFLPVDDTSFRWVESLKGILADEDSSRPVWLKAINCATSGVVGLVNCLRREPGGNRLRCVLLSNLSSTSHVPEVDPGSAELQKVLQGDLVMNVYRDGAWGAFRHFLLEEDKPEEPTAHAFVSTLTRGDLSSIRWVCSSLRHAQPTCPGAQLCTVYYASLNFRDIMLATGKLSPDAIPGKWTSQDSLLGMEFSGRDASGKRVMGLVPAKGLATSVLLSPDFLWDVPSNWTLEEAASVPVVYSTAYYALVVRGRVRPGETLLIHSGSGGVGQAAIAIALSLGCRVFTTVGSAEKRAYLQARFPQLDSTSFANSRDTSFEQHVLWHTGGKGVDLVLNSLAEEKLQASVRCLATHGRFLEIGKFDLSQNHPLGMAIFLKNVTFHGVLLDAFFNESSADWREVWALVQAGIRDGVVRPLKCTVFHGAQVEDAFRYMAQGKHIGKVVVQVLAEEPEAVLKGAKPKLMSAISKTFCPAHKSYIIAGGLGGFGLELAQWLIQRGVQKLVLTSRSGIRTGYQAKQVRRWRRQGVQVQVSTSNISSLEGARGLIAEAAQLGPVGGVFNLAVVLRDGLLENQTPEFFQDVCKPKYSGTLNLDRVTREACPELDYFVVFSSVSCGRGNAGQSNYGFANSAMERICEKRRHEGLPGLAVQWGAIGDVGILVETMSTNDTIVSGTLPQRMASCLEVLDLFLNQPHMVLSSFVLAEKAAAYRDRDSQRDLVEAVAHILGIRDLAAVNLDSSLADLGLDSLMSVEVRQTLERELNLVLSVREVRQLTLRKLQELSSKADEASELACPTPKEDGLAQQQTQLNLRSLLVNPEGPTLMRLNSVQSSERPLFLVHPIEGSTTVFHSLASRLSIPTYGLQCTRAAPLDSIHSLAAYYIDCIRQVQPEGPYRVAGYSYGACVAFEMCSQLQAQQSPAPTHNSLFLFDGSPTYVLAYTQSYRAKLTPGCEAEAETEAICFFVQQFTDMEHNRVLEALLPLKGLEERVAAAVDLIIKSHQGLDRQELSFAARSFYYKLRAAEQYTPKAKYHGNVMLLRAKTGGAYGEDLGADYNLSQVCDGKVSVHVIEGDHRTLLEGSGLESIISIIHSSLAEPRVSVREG
Type: biochemical
How it was run: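 CoA product reacted with thiol-reactive CPM (diluted to 50 μM in 70% ethanol), read at 390/530 nm after 30 min. Preceding reaction: 90 min, 5 nM recombinant GST-FASN, 150 μM NADPH, 10 μM acetyl-CoA, 25 μM malonyl-CoA, pH 7.5 HEPES, 0.5% DMSO. IC50s fitted by nonlinear sigmoidal regression.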

Row | IC50 | Compound
1 | 1 to 99 nM | Cc1cc2cc(-c3ccc(OC4CCN(C(=O)[C@H]5CCCO5)CC4)cc3)ccc2cn1 [Example 437, {4-[4-(3-Methylisoquinolin-6-yl)-phenoxy]-piperidin-1-yl}-(R)-tetrahydro-furan-2-yl-methanone]
2 | 1 to 99 nM | CCc1nccc2cc(-c3ccc(OC4CCN(C(=O)[C@H]5CCCO5)CC4)cc3)ccc12 [Example 438, {4-[4-(1-Ethylisoquinolin-6-yl)-phenoxy]-piperidin-1-yl}-(R)-tetrahydro-furan-2-yl-methanone, HCl]
3 | 1000 to 10000 nM | CCC(=O)N1CCC(Oc2ccc(-c3ccc4c(C5CC5)nccc4c3)cc2)CC1 [Example 439, 1-{4-[4-(1-Cyclopropyl-isoquinolin-6-yl)-phenoxy]-piperidin-1-yl}-propan-1-one]
4 | 1 to 99 nM | O=C([C@H]1CCCO1)N1CCC(Oc2ccc(-c3ccc4c(C5CC5)nccc4c3)cc2)CC1 [Example 440, {4-[4-(1-Cyclopropylisoquinolin-6-yl)-phenoxy]-piperidin-1-yl}-(R)-tetrahydrofuran-2-yl-methanone]
5 | 1000 to 10000 nM | CCC(=O)N1CCC(Oc2ccc(-c3cnc4cc(OC)c(C)cc4c3)cc2)CC1 [Example 441, 1-{4-[4-(7-Methoxy-6-methylquinolin-3-yl)-phenoxy]-piperidin-1-yl}-propan-1-one]
6 | 1000 to 10000 nM | COc1cc2ncc(-c3ccc(OC4CCN(C(=O)C5CC5)CC4)cc3)cc2cc1C [Example 442, Cyclopropyl-{4-[4-(7-methoxy-6-methylquinolin-3-yl)-phenoxy]-piperidin-1-yl}-methanone]
7 | 1000 to 10000 nM | COc1cc2ncc(-c3ccc(OC4CCN(C(=O)[C@H]5CCCO5)CC4)cc3)cc2cc1C [Example 443, {4-[4-(7-Methoxy-6-methylquinolin-3-yl)-phenoxy]-piperidin-1-yl}-(R)-tetrahydrofuran-2-yl-methanone]
8 | 1000 to 10000 nM | CCC(=O)N1CCC(Oc2ccc(-c3cnc4cc(OC)c(F)cc4c3)cc2)CC1 [Example 444, 1-{4-[4-(6-Fluoro-7-methoxyquinolin-3-yl)-phenoxy]-piperidin-1-yl}-propan-1-one]
9 | 1000 to 10000 nM | COc1cc2ncc(-c3ccc(OC4CCN(C(=O)C5CC5)CC4)cc3)cc2cc1F [Example 445, Cyclopropyl-{4-[4-(6-fluoro-7-methoxyquinolin-3-yl)-phenoxy]-piperidin-1-yl}-methanone]
10 | 1000 to 10000 nM | COc1cc2ncc(-c3ccc(OC4CCN(C(=O)[C@H]5CCCO5)CC4)cc3)cc2cc1F [Example 446, {4-[4-(6-Fluoro-7-methoxyquinolin-3-yl)-phenoxy]-piperidin-1-yl}-(R)-tetrahydrofuran-2-yl-methanone]
11 | 1000 to 10000 nM | CCC(=O)N1CCC(Oc2ccc(-c3cnc4cc(OC)c(Cl)cc4c3)cc2)CC1 [Example 447, 1-{4-[4-(6-Chloro-7-methoxyquinolin-3-yl)-phenoxy]-piperidin-1-yl}-propan-1-one]
12 | 1000 to 10000 nM | COc1cc2ncc(-c3ccc(OC4CCN(C(=O)C5CC5)CC4)cc3)cc2cc1Cl [Example 448, {4-[4-(6-Chloro-7-methoxyquinolin-3-yl)-phenoxy]-piperidin-1-yl}-cyclopropylmethanone]
13 | 1000 to 10000 nM | COc1cc2ncc(-c3ccc(OC4CCN(C(=O)[C@H]5CCCO5)CC4)cc3)cc2cc1Cl [Example 449, {4-[4-(6-Chloro-7-methoxyquinolin-3-yl)-phenoxy]-piperidin-1-yl}-(R)-tetrahydrofuran-2-yl-methanone]
14 | 1 to 99 nM | COc1ccc2ncc(-c3ccc(OC4CCN(C(=O)[C@H]5CCCO5)CC4)cc3)cc2c1 [Example 450, {4-[4-(6-Methoxyquinolin-3-yl)-phenoxy]-piperidin-1-yl}-(R)-tetrahydro-furan-2-yl-methanone, HCl]
15 | 1 to 99 nM | CC(C)Oc1cc2cc(-c3ccc(OC4CCN(C(=O)[C@H]5CCCO5)CC4)cc3)ccc2cn1 [Example 451, {4-[4-(3-Isopropoxyisoquinolin-6-yl)-phenoxy]-piperidin-1-yl}-(R)-tetrahydrofuran-2-yl-methanone]
16 | 1 to 99 nM | O=C([C@H]1CCCO1)N1CCC(Oc2ccc(-c3ccc4c(N5CCOCC5)nccc4c3)cc2)CC1 [Example 452, {4-[4-(1-Morpholin-4-yl-isoquinolin-6-yl)-phenoxy]-piperidin-1-yl}-(R)-tetrahydrofuran-2-yl-methanone]
17 | 100 to 999 nM | CN(C)c1nccc2cc(-c3ccc(OC4CCN(C(=O)[C@H]5CCCO5)CC4)cc3)ccc12 [Example 453, {4-[4-(1-Dimethylaminoisoquinolin-6-yl)-phenoxy]-piperidin-1-yl}-(R)-tetrahyrofuran-2-yl methananone, HCl]
18 | 1 to 99 nM | Nc1nccc2cc(-c3ccc(OC4CCN(C(=O)[C@H]5CCCO5)CC4)cc3)ccc12 [Example 454, {4-[4-(1-Aminoisoquinolin-6-yl)-phenoxy]-piperidin-1-yl}-(R)-tetrahydro-furan-2-yl-methanone]
19 | 1000 to 10000 nM | CN1CCN(c2nccc3cc(-c4ccc(OC5CCN(C(=O)[C@H]6CCCO6)CC5)cc4)ccc23)CC1 [Example 455]

Row | IC50 | Compound
20 | 1 to 99 nM | CNc1nccc2cc(-c3ccc(OC4CCN(C(=O)[C@H]5CCCO5)CC4)cc3)ccc12 [Example 456, {4-[4-(1-Methylaminoisoquinolin-6-yl)-phenoxy]-piperidin-1-yl}-(R)-tetrahydrofuran-2-yl-methanone]
21 | 1 to 99 nM | Cc1cncc2cc(-c3ccc(OC4CCN(C(=O)[C@H]5CCCO5)CC4)cc3)ccc12 [Example 459, {4-[4-(4-Methylisoquinolin-6-yl)-phenoxy]-piperidin-1-yl}-(R)-tetrahydrofuran-2-yl-methanone, HCl]
22 | 100 to 999 nM | CCC(=O)N1CCC(Oc2ccc(-c3cnc4cccc(C)c4c3)cc2)CC1 [Example 460, 1-{4-[4-(5-Methylquinolin-3-yl)-phenoxy]-piperidin-1-yl}-propan-1-one, HCl]
23 | 100 to 999 nM | Cc1cccc2ncc(-c3ccc(OC4CCN(C(=O)C5CC5)CC4)cc3)cc12 [Example 461, Cyclopropyl-{4-[4-(5-methyl-quinolin-3-yl)-phenoxy]-piperidin-1-yl}-methanone, HCl]
24 | 1 to 99 nM | Cc1cccc2ncc(-c3ccc(OC4CCN(C(=O)[C@H]5CCCO5)CC4)cc3)cc12 [Example 462, {4-[4-(5-Methylquinolin-3-yl)-phenoxy]-piperidin-1-yl}-(R)-tetrahydro-furan-2-yl-methanone, HCl]
25 | 1000 to 10000 nM | CCC(=O)N1CCC(Oc2ccc(-c3cnc4cccc(OC)c4c3)cc2)CC1 [Example 463, 1-{4-[4-(5-Methoxyquinolin-3-yl)-phenoxy]-piperidin-1-yl}-propan-1-one, HCl]
26 | 1000 to 10000 nM | COc1cccc2ncc(-c3ccc(OC4CCN(C(=O)C5CC5)CC4)cc3)cc12 [Example 464, Cyclopropyl-{4-[4-(5-methoxyquinolin-3-yl)-phenoxy]-piperidin-1-yl}-methanone]
27 | 100 to 999 nM | COc1cccc2ncc(-c3ccc(OC4CCN(C(=O)[C@H]5CCCO5)CC4)cc3)cc12 [Example 465, {4-[4-(5-Methoxyquinolin-3-yl)-phenoxy]-piperidin-1-yl}-(R)-tetrahydro-furan-2-yl-methanone, HCl]
28 | 1 to 99 nM | O=C(C1CC1)N1CCC(Oc2ccc(-c3ccc4cnccc4c3)cc2)CC1 [Example 466, Cyclopropyl-[4-(4-isoquinolin-6-yl-phenoxy)-piperidin-1-yl]-methanone]
29 | 1 to 99 nM | O=C([C@H]1CCCO1)N1CCC(Oc2ccc(-c3ccc4cnccc4c3)cc2)CC1 [Example 467, [4-[4-(6-Isoquinolyl)phenoxy]-1-piperidyl]-[(2R)-tetrahydrofuran-2-yl]-methanone HCl]
30 | 1 to 99 nM | Cc1c(-c2ccc(OC3CCN(C(=O)[C@H]4CCCO4)CC3)cc2)ccc2cnccc12 [Example 468, {4-[4-(5-Methylisoquinolin-6-yl)-phenoxy]-piperidin-1-yl}-(R)-tetrahydro-furan-2-yl-methanone, HCl]
31 | 100 to 999 nM | CCC(=O)N1CCC(Oc2ccc(-c3ccc4c(C)ncc(C)c4c3)cc2)CC1 [Example 469, 1-[4-[4-(1,4-Dimethyl-6-isoquinolyl)phenoxy]-1-piperidyl]propan-1-one, HCl]
32 | 100 to 999 nM | Cc1cnc(C)c2ccc(-c3ccc(OC4CCN(C(=O)C5CC5)CC4)cc3)cc12 [Example 470, Cyclopropyl-[4-[4-(1,4-dimethyl-6-isoquinolyl)phenoxy]-1-piperidyl]methanone, HCl]
33 | 1 to 99 nM | Cc1cnc(C)c2ccc(-c3ccc(OC4CCN(C(=O)[C@H]5CCCO5)CC4)cc3)cc12 [Example 471, [4-[4-(1,4-Dimethyl-6-isoquinolyl)phenoxy]-1-piperidyl]-[(2R)-tetrahydrofuran-2-yl]methanone, HCl]
34 | 100 to 999 nM | CCC(=O)N1CCC(Oc2ccc(-c3ccc4c(C)nccc4c3C)cc2)CC1 [Example 472, 1-[4-[4-(1,5-Dimethyl-6-isoquinolyl)phenoxy]-1-piperidyl]propan-1-one HCl]
35 | 100 to 999 nM | Cc1nccc2c(C)c(-c3ccc(OC4CCN(C(=O)C5CC5)CC4)cc3)ccc12 [Example 473, Cyclopropyl-[4-[4-(1,5-dimethyl-6-isoquinolyl)phenoxy]-1-piperidyl]methanone HCl]
36 | 1 to 99 nM | Cc1nccc2c(C)c(-c3ccc(OC4CCN(C(=O)[C@H]5CCCO5)CC4)cc3)ccc12 [Example 474, [4-[4-(1,5-Dimethyl-6-isoquinolyl)phenoxy]-1-piperidyl]-[(2R)-tetrahydrofuran-2-yl]methanone, HCl]
37 | 1 to 99 nM | O=C([C@H]1CCCO1)N1CCC(Oc2ccc(-c3ccc4cccnc4c3C3CC3)cc2)CC1 [Example 475, [4-[4-(8-Cyclopropyl-7-quinolyl)phenoxy]-1-piperidyl]-[(2R)-tetrahydrofuran-2-yl]methanone, HCl]
